Measurements as given in EP3050886A1, “Fluorescent dyes and dye precursors” (Bürkert Werke GmbH, priority 2015, dated 2016).

How the values were obtained:
[1] = test system: Bacillus subtilis (B. subtilis) (ATCC 6633); assay: Bacteria staining test, fluorescence microscopy; type: cell-based; conditions: Fig. 3d, comparison between pro-fluorophores
Protocol: (§1) Escherichia coli (E. coli) (ATCC 8739) and Bacillus subtilis (B. subtilis) (ATCC 6633) strains were routinely grown in Luria Bertani (LB) broth or on LB agar plates for 18h at 37 °C. Waterborne environmental bacteria such as Enterobacter cloacae (E. cloacae), Chryseobacterium indologenes (C. indologenes), Pseudomonas aeruginosa (P. aeruginosa), and E. coli (EC18) were purchased from Eurofins™. Environmental bacteria were grown in LB broth or on casein-peptone soymeal-peptone agar plates for 18h at 37 °C.
(§2) For the staining tests, E. coli (ATCC 8739 or EC18), E. cloacae, C. indologenes, P. aeruginosa and B. subtilis were cultivated in Luria-Bertani (LB) broth until exponential phase at 37°C with shaking at 300 rpm revolutions per minutes (rpm). Bacteria were harvested and washed in sterile phosphate buffer saline solution (PBS) at pH […] by centrifugation at 10000 rpm for 3 min at room temperature (21 ± 2 °C). Then the bacteria were resuspended in PBS at a concentration of 1·10^9 bacteria/ml. Bacteria concentration was calculated according to the turbidity measure at 660 nm (A660nm=1 correspond to bacterial suspension at ∼ 5·10^8 bacteria/ ml).
(§3) Dead bacterial suspensions at 1·10^9 bacteria/ml (negative controls) of these five species of bacteria were prepared individually by addition of 20 µl of bleach containing 2.6 % active chlorine. Bacteria were treated with bleach solution for 15 min. Dead bacteria were washed twice in sterile PBS by centrifugation at 10000 rpm for 3 min at room temperature. The culturability of the negative controls was assessed by plating 100 µl of bacterial suspension onto LB agar or Caso agar and incubating the plates at 37 °C for 72 h.
(§4) Bacteria (100 µl suspension at 1·10^9 bacteria/ml) were stained with 10 µM or 15 µM of pro-fluorophore (5-CFDA, 5-PFDAE, 5-PFDAT, 5-PFDA, 5-COGDA, 5-POGDA or 5-POGAM) in 200 µl of PBS solution containing 0.6 % of glutaraldehyde. Bacteria were incubated at 37 °C for 10 - 60 min with pro-fluorophore in darkness. After bacterial staining, they were washed and resuspended in 100 µl of PBS as described above.
(§5) Staining of the bacterial suspension was observed under a fluorescent microscope. These bacteria were imaged with a Leica DM5500 microscope equipped with FITC filter. […] Images were collected with a 100x objective. Fluorescence intensity of stained bacterial suspension was also measured with FluoroLog®-3 (Horiba Jobin Yvon) spectrofluorometer equipped with sample stirring. Samples were placed in fluorescence grade quartz cuvette having a volume of 1 ml. The excitation wavelength used was 488 nm and emission wavelength used was 517 nm. The same experiment was repeated three times (n = 3).

[2] = test system: E. coli (ATCC 8739); assay: Labeling of viable or dead E. coli, fluorescence microscopy; type: cell-based, Escherichia coli; conditions: 15 µM, 30 min at 37 °C, Figure 4
Protocol: as §1, §2, §3, §4, §5
The pro-fluorophores according to the present invention are preferably used to label E. coli cells. Viable or dead E. coli (ATCC 8739) are incubated with these fluorophores and commercial 5-CFDA as described above. […] Glutaraldehyde is added to the incubation solutions to improve the retention of the fluorophores in bacteria.
Bacteria were washed before being imaged with a Leica DM5500 microscope, 100x objective. Scale bars indicate 10 µm.

[3] = Absorption spectra / extinction coefficients; type: physicochemical
Protocol: Absorption spectra were recorded in a 1-cm path length cuvette (Hellma, 104.002B-QS) on a SPECORD®-205 spectrometer from Analytik Jena.
The Extinction coefficients of the flourophores fluorescein, 5-carboxyfluorescein (5-CF), 5-carboxy Oregon Green™ (5-COG), 5-amido N-propyl Oregon Green (5-POG; Example 2) and 5-amido N-propyl fluorescein (5-PFA; Example 3) were measured in 0.1 M NaOH solution at pH 12.7.
The extinction coefficients of the pro-fluorophores 5-thiourea N-propyl fluorescein diacetate (5-PFDAT; Example 5), 5-propyl carboxylate fluorescein diacetate (5-PFDAE; Example 8), 5-amido N-propyl fluorescein diacetate (5-PFDA; Example 7), 5-carboxy Oregon Green diacetate (5-COGDA; Example 9), 5-amido N-propyl Oregon Green diacetate (5-POGDA; Example 6) and 5-amido N-propyl Oregon Green acetoxymethylester (5-POGAM; Example 10) were measured in PBS buffer containing 0.6 % glutaraldehyde at pH 7.

[4] = test system: E. coli (ATCC 8739); assay: Labeling of viable E. coli, fluorescence intensity by spectrofluorometer; type: cell-based, Escherichia coli
Protocol: as §2, §3
[…] Bacteria were incubated at 37 °C for 10 - 60 min with pro-fluorophore in darkness. After bacterial staining, they were washed and resuspended in 100 µl of PBS as described above.
as §5
Viable or dead E. coli (ATCC 8739) were incubated with different pro-fluorophores (10 - 15 µM) for 30 min at 37 °C. After washes, fluorescence of the E. coli suspension was measured with a FluoroLog®-3 spectrofluorometer (excitation wavelength: 488 nm, emission wavelength: 517 nm). Relative rates of viable E. coli fluorescence intensity were calculated by normalizing the difference of viable E. coli fluorescence intensity and dead E. coli fluorescence intensity with 5-CFDA staining.
Viable E. coli (ATCC 8739) were incubated with different pro-fluorophores (15 µM) at 37 °C for 10 - 60 min. After washes, E. coli fluorescence suspension was measured with FluoroLog®-3 spectrofluorometer (excitation wavelength: 488 nm, emission wavelength: 517 nm).

[5] = Short-term chemical stability (spontaneous fluorescence generation) in aqueous buffer; type: physicochemical; conditions: for chemical stability in aqueous solution (in words): PBS solution containing 0.6 % glutaraldehyde, 37°C
Protocol: The short-term chemical stability of the pro-fluorophores of the present invention in an aqueous buffer was evaluated by fluorometric measurement analysis after several minutes of storage at 37°C.
Each pro-fluorophore (5-CFDA, 5-PFDAE, 5-PFDAT, 5-PFDA, 5-COGDA, 5-POGDA, 5-POGAM) was dissolved in dimethylsulfoxide (DMSO) in order to prepare a 10 mM stock solution. Short-term stability studies (0-60 min) were performed in the absence of light at 37°C. The pro-fluorophore stock solutions were diluted into a PBS solution containing 0.6 % of glutaraldehyde (pH ∼7). The pro-fuorophore final concentration was 15 µM. Samples were stored in a fluorescence grade quartz cuvette having a volume of 1 ml. Fluorescence emission spectra between 500 and 540 nm were recorded every 10 minutes. The excitation wavelength used was 488 nm. Fluorometric measurement were made with a FluoroLog®-3. (Horiba Jobin Yvon) spectrofluorometer equipped with sample stirring. The same experiment was repeated three times (n = 3).
Thus, the slope of the straight line corresponds to the speed of spontaneous fluorescence generation.

[6] = Fluorometric measurements / quantum yield; type: physicochemical; conditions: for Φ (quantum yield): 1 µM in 0.1 M NaOH at pH 12.7, excitation 488 nm, standard fluorescein, n = 3; for λem / λex: 0.1 M NaOH at pH 12.7
Protocol: Fluorometric measurements were made using fluorescence grade quartz cuvette and FluoroLog®-3 spectrofluorometer from Horiba Jobin Yvon equipped with sample stirring. The quantum yields (QY) of 5-CF, 5-COG, 5-POG and 5-PFA were measured with samples at 1 µM (absorbance 488 nm ≤ 0.2) in 0.1 M NaOH at pH 12.7. Every sample and the standard (fluorescein) was prepared freshly before use. In this study, fluorescein in 0.1 M NaOH at pH 12.7 was the reference system with a known quantum yield (Φ = 0.925).
Quantum yield measurements were done using standard absorption and emission spectrometers. Emission spectra range was between the wavelengths 498 - 600 nm and excitation wavelength was 488 nm for the samples and fluorescein. The refractive indices of the samples and fluorescein solutions were the same since they were prepared in the same buffer. Under these conditions, quantum yields were calculated by using the equation: Φ^i = (F^ifs/F^sfi)*Φ^s [formula]
wherein Φ^i and Φ^s are the photoluminescence QY of the sample and standard (fluorescein), respectively; F^i and F^s are the integrated intensities (areas) of sample and fluorescein spectra, respectively; and fi and fs are the absorption factor of the sample and fluorescein, respectively, with fi or s = 1-10^-Ai or s, wherein A = absorbance.
The same experiment was repeated three times (n = 3).

[7] = pro-fluorophores, PBS buffer containing 0.6 % glutaraldehyde at pH 7
[8] = fluorophores, 0.1 M NaOH solution at pH 12.7

E (extinction coefficient) [3, 7] [M⁻¹ cm⁻¹]	λAbs max [3, 7] [nm]	E (extinction coefficient) [3, 8] [M⁻¹ cm⁻¹]	λAbs max [3, 8] [nm]	Φ (quantum yield) [6]	λem [6] [nm]	λex [6] [nm]	Compound	staining of viable E. coli (microscopy) [2]	also measured
–	–	–	–	–	–	–	CC(=O)Oc1ccc2c(c1)Oc1cc(OC(C)=O)ccc1C21OC(=O)c2cc(C(=O)O)ccc21 [Example 5-CFDA, 5-carboxyfluorescein diacetate, reference compound]	–	fluorescence intensity of the stained B. subtilis [1]: higher than the staining with 5-POGDA and 5-POGAM
7903 ± 761	295	–	–	–	–	–	CCCOC(=O)c1ccc2c(c1)C(=O)OC21c2ccc(OC(C)=O)cc2Oc2cc(OC(C)=O)ccc21 [Example 5-PFDAE, 3-oxo-5-(propoxycarbonyl)-3H-spiro[isobenzofuran-1,9'-xanthene]-3',6'-diyl diacetate]	weaker green fluorescence, as compared to 5-CFDA staining	fluorescence signal of dead E. coli (microscopy) [2]: No fluorescence signal of dead bacteria was detected; chemical stability in aqueous solution (in words) [5]: remarkable stability
–	–	74835 ± 4762	495	0,902 ± 0.013	518 ± 1.1	493 ± 0.6	CCCNC(=O)c1ccc2c(c1)C(=O)OC21c2cc(F)c(O)cc2Oc2cc(O)c(F)cc21 [Example 5-POG, 2',7'-difluoro-3',6'-dihydroxy-3-oxo-N-propyl-3H-spiro[isobenzofuran-1,9'-xanthene]-5-carboxamide]	–	–
–	–	73490 ± 8454	495	0,835 ± 0.002	518 ± 0.4	493 ± 0.3	CCCNC(=O)c1ccc2c(c1)C(=O)OC21c2ccc(O)cc2Oc2cc(O)ccc21 [Example 5-PFA, 3',6'-dihydroxy-3-oxo-N-propyl-3H-spiro[isobenzofuran-1,9'-xanthene]-5-carboxamide]	–	–
–	–	83136 ± 4452	493	0,912 ± 0.011	517 ± 0.4	491 ± 1.2	O=C(O)c1ccc2c(c1)C(=O)OC21c2cc(F)c(O)cc2Oc2cc(O)c(F)cc21 [Example 5-COG, 5-carboxy Oregon Green™, reference compound]	–	–
–	–	76474 ± 4009	493	0.963 ± 0.004	517 ± 0.6	491 ± 0.7	O=C(O)c1ccc2c(c1)C(=O)OC21c2ccc(O)cc2Oc2cc(O)ccc21 [Example 5-CF, 5-carboxyfluorescein, reference compound]	–	–
–	–	–	–	–	–	–	CCCNC(=S)Nc1ccc2c(c1)C(=O)OC21c2ccc(OC(C)=O)cc2Oc2cc(OC(C)=O)ccc21 [Example 5-PFDAT, 3-oxo-5-(3-propylthioureido)-3H-spiro[isobenzofuran-1,0'-xanthene]-3',6'-diyl diacetate]	become fluorescent	fluorescence signal of dead E. coli (microscopy) [2]: become fluorescent
9284 ± 758	291	–	–	–	–	–	CCCNC(=O)c1ccc2c(c1)C(=O)OC21c2ccc(OC(C)=O)cc2Oc2cc(OC(C)=O)ccc21 [Example 5-PFDA, 3-oxo-5-(propylcarbamoyl)-3H-spiro[isobenzofuran-1,9'-xanthene]-3',6'-diyl diacetate]	specifically stained with high fluorescence intensity	viable E. coli fluorescence intensity compared with 5-CFDA over incubation time ([4]; 15 µM, 37 °C, incubation for 10 to 60 min, Figure 6): higher fluorescence intensity than incubation with 5-CFDA

Compound	E (extinction coefficient) [3, 7] [M⁻¹ cm⁻¹]	λAbs max [3, 7] [nm]	E (extinction coefficient) [3, 8] [M⁻¹ cm⁻¹]	λAbs max [3, 8] [nm]	Φ (quantum yield) [6]	λem [6] [nm]	λex [6] [nm]	staining of viable E. coli (microscopy) [2]	also measured
CC(=O)Oc1cc2c(cc1F)C1(OC(=O)c3cc(C(=O)O)ccc31)c1cc(F)c(OC(C)=O)cc1O2 [Example 5-COGDA, 3',6'-diacetoxy-2',7'-difluoro-3-oxo-3H-spiro[isobenzofuran-1,9'-xanthene]-5-carboxylic acid]	6979 ± 282	300	–	–	–	–	–	specifically stained with high fluorescence intensity	viable E. coli fluorescence intensity relative to 5-CFDA staining ([4]; 10 - 15 µM, 30 min at 37 °C, excitation 488 nm, emission 517 nm, Figure 5): between two and three times higher; chemical stability in aqueous solution (in words) [5]: less stable; relative speed of spontaneous fluorescence generation (spontaneous hydrolysis) ([5]; relative to 5-CFDA, 15 µM, PBS containing 0.6 % glutaraldehyde, pH ~7, 37°C, 0-60 min): eight times higher
